assay: recombinant UMI read abundance after kanamycin selection (control-corrected) (log10(CPM+1)); higher = more efficient recombination; extreme values may be limits of the assay; sequences stand for … in AGTGCAGAGAAAATCGGCCAGTTTTCTCTGCCTGCAGTCCGCATGCCGTGGGACCCCTTGGGTTCTAACCTGTTGCCTAGATTTATGCAGCGGACTGCCTTTCTCCCAAAGTGATAAACCGG…AGGTTGGTTTCACT; site = the 11-nt donor
In short: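 Sequencing read counts were converted to CPM, averaged over two replicates and scaled by control-derived factors. Results are given as log10(CPM+1). The reads covered the donor–target junction of recombinant UMIs from a pooled Escherichia coli screen of donor and donor-binding-loop pairs for the IS621 bridge recombinase.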
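Also: IS621 bridge recombinase in Escherichia coli cells against a fixed T5 target plasmid.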

| Sequence | recombinant UMI read abundance (log10) |
| --- | --- |
| CTAGTATCATGGACCGGTTTTCCCGGTAATCCGTATTTGAC (site CTAGTTGCTGT) | 0 |
| CTAGTATCATGGACCGGTTTTCCCGGTAATCCGTATTTGAC (site CTAGTTTCTGG) | 0 |
| CTAGTATCATGGACCGGTTTTCCCGGTAATCCGTATTTGAC (site CTAGTTTCTGT) | 0 |
| CTAGTATCATGGACCGGTTTTCCCGGTAATCCGTATTTGAC (site CTAGTTTCTTT) | 0 |
| CTAGTATCATGGACCGGTTTTCCCGGTAATCCGTATTTGAC (site CTATGATCTGT) | 0 |
| CTAGTATCATGGACCGGTTTTCCCGGTAATCCGTATTTGAC (site CTATTACCTGT) | 0 |
| CTAGTATCATGGACCGGTTTTCCCGGTAATCCGTATTTGAC (site CTATTATCTAT) | 0 |
| CTAGTATCATGGACCGGTTTTCCCGGTAATCCGTATTTGAC (site CTATTATCTGC) | 0 |
| CTAGTATCATGGACCGGTTTTCCCGGTAATCCGTATTTGAC (site CTATTATCTGT) | 0.701 |
| CTAGTATCATGGACCGGTTTTCCCGGTAATCCGTATTTGAC (site CTATTGTCTGT) | 0 |
| CTAGTATCATGGACCGGTTTTCCCGGTAATCCGTATTTGAC (site CTCATATCTGT) | 0.632 |
| CTAGTATCATGGACCGGTTTTCCCGGTAATCCGTATTTGAC (site CTCGAATCTGT) | 0 |
| CTAGTATCATGGACCGGTTTTCCCGGTAATCCGTATTTGAC (site CTCGTAACTGT) | 0 |
| CTAGTATCATGGACCGGTTTTCCCGGTAATCCGTATTTGAC (site CTCGTATCTCT) | 0.007 |
| CTAGTATCATGGACCGGTTTTCCCGGTAATCCGTATTTGAC (site CTCGTATCTGA) | 0 |
| CTAGTATCATGGACCGGTTTTCCCGGTAATCCGTATTTGAC (site CTCGTATCTGT) | 0.0723 |
| CTAGTATCATGGACCGGTTTTCCCGGTAATCCGTATTTGAC (site CTCGTCTCTGT) | 0 |
| CTAGTATCATGGACCGGTTTTCCCGGTAATCCGTATTTGAC (site CTGCTATCTGT) | 0 |
| CTAGTATCATGGACCGGTTTTCCCGGTAATCCGTATTTGAC (site CTGGCATCTGT) | 0 |
| CTAGTATCATGGACCGGTTTTCCCGGTAATCCGTATTTGAC (site CTGGTAGCTGT) | 0 |
| CTAGTATCATGGACCGGTTTTCCCGGTAATCCGTATTTGAC (site CTGGTATCTGG) | 0 |
| CTAGTATCATGGACCGGTTTTCCCGGTAATCCGTATTTGAC (site CTGGTATCTGT) | 0 |
| CTAGTATCATGGACCGGTTTTCCCGGTAATCCGTATTTGAC (site CTGGTATCTTT) | 0.0145 |
| CTAGTATCATGGACCGGTTTTCCCGGTAATCCGTATTTGAC (site CTGGTTTCTGT) | 0 |
| CTAGTATCATGGACCGGTTTTCCCGGTAATCCGTATTTGAC (site CTTGGATCTGT) | 0 |

| Sequence | recombinant UMI read abundance (log10) |
| --- | --- |
| CTAGTATCATGGACCGGTTTTCCCGGTAATCCGTATTTGAC (site CTTGTACCTGT) | 0.169 |
| CTAGTATCATGGACCGGTTTTCCCGGTAATCCGTATTTGAC (site CTTGTATCTAT) | 0 |
| CTAGTATCATGGACCGGTTTTCCCGGTAATCCGTATTTGAC (site CTTGTATCTGC) | 0 |
| CTAGTATCATGGACCGGTTTTCCCGGTAATCCGTATTTGAC (site CTTGTATCTGT) | 1.57 |
| CTAGTATCATGGACCGGTTTTCCCGGTAATCCGTATTTGAC (site CTTGTGTCTGT) | 0 |
| CTAGTATCATGGACCGGTTTTCCCGGTAATCCGTATTTGAC (site CTTTTATCTGT) | 1 |
| CTAGTATCATGGACCGGTTTTCCCGGTAATCCGTATTTGAC (site GGAGTATCTGT) | 2.07 |
| CTAGTATCATGGACCGGTTTTCCCGGTAATCCGTATTTGAC (site GTAGGATCTGT) | 0.00691 |
| CTAGTATCATGGACCGGTTTTCCCGGTAATCCGTATTTGAC (site GTAGTACCTGT) | 0 |
| CTAGTATCATGGACCGGTTTTCCCGGTAATCCGTATTTGAC (site GTAGTATCTAT) | 0 |
| CTAGTATCATGGACCGGTTTTCCCGGTAATCCGTATTTGAC (site GTAGTATCTGC) | 0 |
| CTAGTATCATGGACCGGTTTTCCCGGTAATCCGTATTTGAC (site GTAGTATCTGT) | 0 |
| CTAGTATCATGGACCGGTTTTCCCGGTAATCCGTATTTGAC (site GTAGTGTCTGT) | 0.0419 |
| CTAGTATCATGGACCGGTTTTCCCGGTAATCCGTATTTGAC (site GTATTATCTGT) | 0 |
| CTAGTATCATGGACCGGTTTTCCCGGTAATCCGTATTTGAC (site GTTGTATCTGT) | 0.0569 |
| CTAGTATCATGGACCGGTTTTCCCGGTAATCCGTATTTGAC (site TAAGTATCTGT) | 0 |
| CTAGTATCATGGACCGGTTTTCCCGGTAATCCGTATTTGAC (site TTAATATCTGT) | 0 |
| CTAGTATCATGGACCGGTTTTCCCGGTAATCCGTATTTGAC (site TTAGAATCTGT) | 0 |
| CTAGTATCATGGACCGGTTTTCCCGGTAATCCGTATTTGAC (site TTAGTAACTGT) | 0 |
| CTAGTATCATGGACCGGTTTTCCCGGTAATCCGTATTTGAC (site TTAGTATCTCT) | 0 |
| CTAGTATCATGGACCGGTTTTCCCGGTAATCCGTATTTGAC (site TTAGTATCTGA) | 0 |
| CTAGTATCATGGACCGGTTTTCCCGGTAATCCGTATTTGAC (site TTAGTATCTGT) | 1.71 |
| CTAGTATCATGGACCGGTTTTCCCGGTAATCCGTATTTGAC (site TTAGTCTCTGT) | 0 |
| CTAGTATCATGGACCGGTTTTCCCGGTAATCCGTATTTGAC (site TTCGTATCTGT) | 0 |
| CTAGTATCATGGACCGGTTTTCCCGGTAATCCGTATTTGAT (site CTAGTATCTAT) | 2.21 |

| Sequence | recombinant UMI read abundance (log10) |
| --- | --- |
| CTAGTATCATGGACCGGTTTTCCCGGTAATCCGTATTTGAT (site CTAGTATCTCT) | 0.557 |
| CTAGTATCATGGACCGGTTTTCCCGGTAATCCGTATTTGAT (site CTAGTATCTGT) | 1.31 |
| CTAGTATCATGGACCGGTTTTCCCGGTAATCCGTATTTGAT (site CTAGTATCTTT) | 1.07 |
| CTAGTATCATGGACCGGTTTTCCCGGTAATCCGTATTTGCA (site CTAGTATCTGT) | 0.00642 |
| CTAGTATCATGGACCGGTTTTCCCGGTAATCCGTATTTGCA (site CTAGTATCTTG) | 2.72 |
| CTAGTCCCATGGACCGGTTTTCCCGGTAATCCGTATTTGCT (site CTAGTCCCTAG) | 1.79 |
| CTAGTCCCATGGACCGGTTTTCCCGGTAATCCGTATTTGGA (site CTAGTCCCTTC) | 0.281 |
| CTAGTCGCATGGACCGGTTTTCCCGGTAATCCGTATTTGCG (site ATAGTCGCTCG) | 0.00637 |
| CTAGTCGCATGGACCGGTTTTCCCGGTAATCCGTATTTGCG (site CTAGTCGCTCG) | 0.966 |
| CTAGTCGCATGGACCGGTTTTCCCGGTAATCCGTATTTGCG (site GTAGTCGCTCG) | 0 |
| CTAGTCGCATGGACCGGTTTTCCCGGTAATCCGTATTTGCG (site TTAGTCGCTCG) | 0.0191 |
| CTAGTCTCATGGACCGGTTTTCCCGGTAATCCGTATTTGAC (site CTAGTATCTGT) | 0.627 |
| CTAGTCTCATGGACCGGTTTTCCCGGTAATCCGTATTTGAC (site CTAGTCTCTGT) | 2.93 |
| CTAGTCTCATGGACCGGTTTTCCCGGTAATCCGTATTTGAC (site CTAGTGTCTGT) | 0 |
| CTAGTCTCATGGACCGGTTTTCCCGGTAATCCGTATTTGAC (site CTAGTTTCTGT) | 0.799 |
| CTAGTGTCATGGACCGGTTTTCCCGGTAATCCGTATTTGAC (site CTAGTATCTGT) | 1.23 |
| CTAGTGTCATGGACCGGTTTTCCCGGTAATCCGTATTTGAC (site CTAGTCTCTGT) | 0 |
| CTAGTGTCATGGACCGGTTTTCCCGGTAATCCGTATTTGAC (site CTAGTGTCTGT) | 0 |
| CTAGTGTCATGGACCGGTTTTCCCGGTAATCCGTATTTGAC (site CTAGTTTCTGT) | 0 |
| CTAGTTACATGGACCGGTTTTCCCGGTAATCCGTATTTGTC (site CTAGTTACTGA) | 2.57 |
| CTATAAACATGGACCGGTTTTCCCGGTAATCCGTATTTGGA (site CTATAAACTTC) | 2.34 |
| CTATATGCATGGACCGGTTTTCCCGGTAATCCGTATTTGTA (site CTATATGCTTA) | 2.55 |
| CTATCATCATGGACCGGTTTTCCCGGTAATCCGTATTTGCG (site CGATCATCTAG) | 0 |
| CTATCATCATGGACCGGTTTTCCCGGTAATCCGTATTTGCG (site CTATCATCTCG) | 1.87 |
| CTATGATCATGGACCGGTTTTCCCGGTAATCCGTATTTGCG (site CTATGATCTCG) | 3.16 |
